Data set [1] is filed under the species Homo sapiens. The experiment in a line: Selectivity index, ratio of IC50 for human trypsin to IC50 for human plasma kallikrein.
Data set [2] is filed under the species Homo sapiens. Description: Selectivity index, ratio of IC50 for human thrombin to IC50 for human plasma kallikrein.
The species entered for data set [3] is Homo sapiens. Description: Selectivity index, ratio of IC50 for human plasmin to IC50 for human plasma kallikrein.
The species named for data set [4] is Homo sapiens. The experiment in a line: Selectivity index, ratio of IC50 for human tPA to IC50 for human plasma kallikrein.
For data set [5], the species on record is Homo sapiens. Description: Selectivity index, ratio of IC50 for human APC to IC50 for human plasma kallikrein.
Data set [6] is filed under the species Homo sapiens. The experiment in a line: Selectivity index, ratio of IC50 for human Cls to IC50 for human plasma kallikrein.
Data set [7] is filed under the species Homo sapiens. Description: Selectivity index, ratio of IC50 for human FXa to IC50 for human plasma kallikrein.
Data set [8] is filed under the species Homo sapiens. The experiment in a line: Selectivity index, ratio of IC50 for human FX2a to IC50 for human plasma kallikrein.
The species entered for data set [9] is Homo sapiens. The experiment in a line: Selectivity index, ratio of IC50 for human tissue kallikrein to IC50 for human plasma kallikrein.
A short description of data set [10]: Cmax in rat at 10 mg/kg, po. In kind it is ADME, organism-based. On the set-up: route oral, dose 10 mg/kg. The settings on record: in vivo.
The nature of data set [11]: Plasma concentration in rat at 10 mg/kg, po after 24 hrs. The data set is classed as ADME, organism-based.
A short description of data set [12]: AUC in rat at 10 mg/kg, po after 24 hrs. The data set is classed as ADME, organism-based. More on the design: route oral, time 24 hrs, dose 10 mg/kg. The note with it: in vivo.
Data set [13] in a line: Cmax in rat at 5 mg/kg, po. The data set is classed as ADME, organism-based. More on the design: route oral, dose 5 mg/kg. The settings on record: in vivo.
The nature of data set [14]: Plasma concentration in rat at 5 mg/kg, po after 12 hrs. In kind it is ADME, organism-based.
Data set [15] is described as follows: Plasma concentration in rat at 5 mg/kg, po after 24 hrs. The data set is classed as ADME, organism-based.
Data set [16] in a line: AUC in rat at 5 mg/kg, po after 12 hrs. In kind it is ADME, organism-based. More on the design: route oral, time 12 hrs, dose 5 mg/kg. The note with it: in vivo.
Data set [17] in a line: AUC in rat at 5 mg/kg, po after 24 hrs. More on the design: route oral, dose 5 mg/kg, time 24 hrs. In kind it is ADME, organism-based. The note with it: in vivo.

Three molecules from ChEMBL document CHEMBL4842368, “Berotralstat (BCX7353): Structure-Guided Design of a Potent, Selective, and Oral Plasma Kallikrein Inhibitor to Prevent Attacks of Hereditary Angioedema (HAE)” (J Med Chem, 2021) can be followed below.

Consider `N#Cc1cccc([C@@H](NCC2CC2)c2ccc(F)c(NC(=O)c3cc(C(F)(F)F)nn3-c3cccc(CN)c3)c2)c1` (stereo in doubt), for which the Ratio IC50 in the data set filed under Homo sapiens [1] is 12500; in the data set filed under Homo sapiens [2] it was more than 56800; in the data set listed under Homo sapiens [3], 4510; in the data set listed under Homo sapiens [4], more than 56800; in the data set filed under Homo sapiens [5], more than 34100; in the data set filed under Homo sapiens [6] it was more than 56800. Moreover, the figures for the Ratio IC50 in the data set filed under Homo sapiens [7], in the data set filed under Homo sapiens [8] and in the data set filed under Homo sapiens [9] were more than 56800, more than 56800 and more than 34100, respectively.

As to `NCc1cccc(-n2nc(C(F)(F)F)cc2C(=O)Nc2cc(C(NCC3CC3)c3ccccc3)ccc2F)c1` (single isomer, unassigned; (-)), in [10], the highest level (Cmax) was 133 ng/mL. The concentration at 24 h in data set [11] worked out at 30 ng/mL. Moreover, the AUC (in general, concentration integrated over time) at 24 h in [12] stood at 1490 ng·h/mL.

Turning to `NCc1cccc(-n2nc(C(F)(F)F)cc2C(=O)Nc2cc(C(NCC3CC3)c3ccccc3)ccc2F)c1` (stereo in doubt; 25), the highest level in data set [13] (Cmax) was 51 ng/mL. Moreover, the concentration at 12 h in data set [14] came out at 31 ng/mL. Further, in data set [15], the concentration at 24 h is 29 ng/mL. Moreover, the AUC at 12 h in data set [16] stood at 493 ng·h/mL. Also, the area under the curve (AUC) at 24 h in data set [17] is 852 ng·h/mL.
